Data set [1] can be described thus: pKa of unformulated amine lipid by TNS fluorescence. It counts as physicochemical. To be noted: sodium phosphate buffer, unformulated amine lipid, TNS, read-out: Lipid pKa. The method in brief: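 Unformulated amine lipid was diluted from ethanol stock to approx. 100 μM in 0.1 M sodium phosphate buffers spanning pH 4.5–9.0 with TNS. Fluorescence read at ex 321/em 448 nm; normalized data fitted sigmoidally to give pKa.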

The subject of the next data set is rat TTR gene. Put plainly: In vivo editing of TTR in rat liver after LNP delivery (NGS, % editing). Also noted: species or system rat (Sprague-Dawley). To be noted: for Mean % editing in rat liver: NGS, dose 0.03 mpk, LNP with G000534 sgRNA and Cas9 mRNA 1:2 w/w, 3% C13 Ether (Compound 53: 3% PEG2K-DMG), N=5 (Compound 33: N=4). The essentials: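 Four-component LNPs (ionizable amine lipid, DSPC, cholesterol, PEG lipid) carried Cas9 mRNA and a chemically modified sgRNA against rat TTR, made by impinging jet mixing at an N:P near 6. They were injected into the lateral tail vein of female Sprague-Dawley rats. Liver genomic DNA collected at 6 or 7 days was amplicon-sequenced on Illumina MiSeq to calculate percent indels.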

The mark [2] stands for this setting: Experiment 12, 0.04 mpk, LNP with PEG2K-DMG.
The mark [3] stands for this setting: Experiment 14, 0.03 mpk, LNP with C13 Ether.
Setting [4] is: Experiment 10, 0.1 mpk, LNP with PEG2K-DMG.
Setting [5] is: Experiment 11, 0.1 mpk, LNP with PEG2K-DMG.
Setting [6] is: Experiment 13, 0.03 mpk, LNP with PEG2K-DMG.
Setting [7] is: additional ionizable lipids (53-61).
Where [8] appears, read: Experiment 1, 0.1 mpk, LNP with PEG2K-DMG.
Where [9] appears, read: Experiment 2, 0.1 mpk, LNP with PEG2K-DMG.

Like-named read-outs stand apart in the source and are kept apart here.

As for `CCCCCCCCC(CCCCCCCC)OC(=O)CCCC(=O)OCC(COC(=O)CCCC(=O)OC(CCCCCCCC)CCCCCCCC)COC(=O)NCCN1CCCCC1` [Compound 28, di(heptadecan-9-yl) O,O′-(2-((((2-(piperidin-1-yl)ethyl)carbamoyl)oxy)methyl)propane-1,3-diyl) diglutarate], the pKa in data set [1] (Table 2) turned out to be 6.2. Moreover, the Mean % editing in the data set on rat TTR gene (setting [2]) was determined as 11.0%.
In the same order, the values of `CCCCCCCCC(CCCCCCCC)OC(=O)CCCC(=O)OCC(COC(=O)CCCC(=O)OC(CCCCCCCC)CCCCCCCC)COC(=O)NCCN1CCCC1` [Compound 29, di(heptadecan-9-yl) O,O′-(2-((((2-(pyrrolidin-1-yl)ethyl)carbamoyl)oxy)methyl)propane-1,3-diyl) diglutarate] are 7.1 and 27.3%.
For the compound `CCCCCCCCC(CCCCCCCC)OC(=O)CCCC(=O)OCC(COC(=O)CCCC(=O)OC(CCCCCCCC)CCCCCCCC)COC(=O)OCCCN(C)CC` [Compound 30, O,O′-(2-((((3-(ethyl(methyl)amino)propoxy)carbonyl)oxy)methyl)propane-1,3-diyl) di(heptadecan-9-yl) diglutarate], the pKa in data set [1] (Table 2) was 6.4. The compound further showed a Mean % editing in the data set on rat TTR gene (setting [2]) of 12.6%.
With `CCCCCCCCC(CCCCCCCC)OC(=O)CCCC(=O)OCC(COC(=O)CCCC(=O)OC(CCCCCCCC)CCCCCCCC)COC(=O)OCCCN(C)C` [Compound 31, O,O′-(2-((((3-(dimethylamino)propoxy)carbonyl)oxy)methyl)propane-1,3-diyl) di(heptadecan-9-yl) diglutarate], the pKa in data set [1] (Table 2) was found to be 6.8. The Mean % editing with rat TTR gene (setting [2]) is reported as 4.0%.
For `CCCCCCCCC(CCCCCCCC)OC(=O)CCCC(=O)OCC(COC(=O)CCCC(=O)OC(CCCCCCCC)CCCCCCCC)COC(=O)OCCCN1CCCCC1` [Compound 32, di(heptadecan-9-yl) O,O′-(2-((((3-(piperidin-1-yl)propoxy)carbonyl)oxy)methyl)propane-1,3-diyl) diglutarate], in data set [1] (Table 2), the pKa was found to be 5.7. This compound showed a Mean % editing with rat TTR gene (setting [2]) of 1.2%.
As for `CCCCCCCCC(CCCCCCCC)OC(=O)CCCC(=O)OCC(COC(=O)CCCC(=O)OC(CCCCCCCC)CCCCCCCC)COC(=O)OCCCN1CCCC1` [Compound 33, di(heptadecan-9-yl) O,O′-(2-((((3-(pyrrolidin-1-yl)propoxy)carbonyl)oxy)methyl)propane-1,3-diyl) diglutarate], in data set [1] (Table 2), the pKa was 6.5. This compound gave a Mean % editing in the data set with rat TTR gene (setting [2]) of 20.0%. For the same compound, in the data set on rat TTR gene, the “Mean % editing in rat liver” value worked out at 12.2%.
As to `CCCCCCCCC(CCCCCCCC)OC(=O)CCCC(=O)OCC(COC(=O)CCCC(=O)OC(CCCCCCCC)CCCCCCCC)COC(=O)CCCN(C)C` [Compound 34, O,O′-(2-(((4-(dimethylamino)butanoyl)oxy)methyl)propane-1,3-diyl) di(heptadecan-9-yl) diglutarate], the pKa in data set [1] (Table 2) was 6.33. The compound further yielded a Mean % editing in the data set with rat TTR gene (setting [3]) of 14.9%.
In the same order, the values of `CCCCCCCCC(CCCCCCCC)OC(=O)CCCC(=O)OCC(COC(=O)CCCC(=O)OC(CCCCCCCC)CCCCCCCC)OC(=O)NCCN(CC)CC` [Compound 35, O,O′-(2-(((2-(diethylamino)ethyl)carbamoyl)oxy)propane-1,3-diyl) di(heptadecan-9-yl) diglutarate] are 6.83 and 10.3%.
For `CCCCCCC(CCCCCC)OC(=O)CCCC(=O)OCC(COC(=O)CCCC(=O)OC(CCCCCC)CCCCCC)COC(=O)NCCN(CC)CC` [Compound 37, O,O′-(2-((((2-(diethylamino)ethyl)carbamoyl)oxy)methyl)propane-1,3-diyl) di(tridecan-7-yl) diglutarate], in data set [1] (Table 2), the pKa worked out at 6.66. The same compound showed a Mean % editing in the data set on rat TTR gene (setting [2]) of 38.1%.
Consider `CCCCCCCCC(CCCCCCCC)C(=O)OCC(COC(=O)NCCN(CC)CC)COC(=O)C(CCCCCCCC)CCCCCCCC` [Compound 40, 2-((((2-(diethylamino)ethyl)carbamoyl)oxy)methyl)propane-1,3-diyl bis(2-octyldecanoate)], for which the pKa in data set [1] (Table 2) was 5.97. Also, the Mean % editing in the data set on rat TTR gene (setting [3]) amounted to 1.0%.
With `CCCCC/C=C\C/C=C\CCCCCCCC(=O)OCC(COC(=O)CCCC(=O)OC(CCCCCCCC)CCCCCCCC)COC(=O)N(C)CCN(CC)CC` (stereo not shown) [Compound 49, 3-(((2-(diethylamino)ethyl)(methyl)carbamoyl)oxy)-2-((((9Z,12Z)-octadeca-9,12-dienoyl)oxy)methyl)propyl heptadecan-9-yl Glutarate], the pKa in data set [1] (Table 2) is 6.38. Besides, in the data set with rat TTR gene (setting [4]), the Mean % editing came to 47.1%.
For `CCCCC/C=C\C/C=C\CCCCCCCC(=O)OCC(COC(=O)CCCC(=O)OC(CCCCCCCC)CCCCCCCC)COC(=O)NCCN1CCCCCC1` (stereo not shown) [Compound 50, 3-(((2-(azepan-1-yl)ethyl)carbamoyl)oxy)-2-((((9Z,12Z)-octadeca-9,12-dienoyl)oxy)methyl)propyl heptadecan-9-yl Glutarate], in that order: 6.6 and 53.1%.
Take `CCCCCCCCC(CCCCCCCC)OC(=O)CCCCCC(=O)OCC(CCCCCCCCC(=O)OCC(CCCC)CCCCCC)COC(=O)NCCN(CC)CC` (stereo not shown) [Compound 51, 1-(11-((2-butyloctyl)oxy)-2-((((2-(diethylamino)ethyl)carbamoyl)oxy)methyl)-11-oxoundecyl) 7-(heptadecan-9-yl) heptanedioate]: the pKa in data set [1] (Table 2) stood at 6.39. In addition, the Mean % editing in the data set with rat TTR gene (setting [5]) is on record as 60.0%.
`CCCCCCCCC(CCCCCCCC)OC(=O)CCCCCCC(=O)OCC(COC(=O)CCCCCCC(=O)OC(CCCCCCCC)CCCCCCCC)COC(=O)NCCN(CC)CC` [Compound 52, O′1,O1-(2-((((2-(diethylamino)ethyl)carbamoyl)oxy)methyl)propane-1,3-diyl) 8,8′-di(heptadecan-9-yl) di(octanedioate)]: the pKa in data set [1] (Table 2) is 6.47. For the same compound, the Mean % editing was found to be 9.0% in the data set with rat TTR gene (setting [6]) and 7.0% with rat TTR gene (Table 8, 0.03 mpk, LNP with C13 Ether). Further, the “Mean % editing in rat liver” value in the data set on rat TTR gene amounted to 11.9%.
Consider `CCCCC/C=C\C/C=C\CCCCCCCC(=O)OCC(COC(=O)CCC(OCCCCCCCC)OCCCCCCCC)COC(=O)OCCCN(CC)CC` (stereo not shown) [Compound 53], for which the pKa in data set [1] (setting [7]) was determined as 6.2. Moreover, the Mean % editing in the data set on rat TTR gene (setting [8]) was found to be 38.6%; in the data set on rat TTR gene (setting [9]) it was 55.2%; in the data set on rat TTR gene (Experiment 3, 0.1 mpk, LNP with PEG2K-DMG), 41.4%; in the data set with rat TTR gene (Experiment 4, 0.1 mpk, LNP with PEG2K-DMG), 41.8%; with rat TTR gene (Experiment 5, 0.1 mpk, LNP with PEG2K-DMG), 42.8%; in the data set on rat TTR gene (Experiment 6, 0.1 mpk, LNP with PEG2K-DMG), 47.1%. Also, the Mean % editing is given as 31.5% in the data set on rat TTR gene (Experiment 7, 0.1 mpk, LNP with PEG2K-DMG); 47.8% with rat TTR gene (Experiment 8, 0.1 mpk, LNP with PEG2K-DMG); 42.6% in the data set on rat TTR gene (Experiment 9, 0.1 mpk, LNP with PEG2K-DMG); 44.2% in the data set on rat TTR gene (setting [4]); 42.0% in the data set on rat TTR gene (setting [5]); 8.5% in the data set with rat TTR gene (setting [6]). Besides, the Mean % editing in the data set on rat TTR gene (Table 6, 0.03 mpk, PEG lipid C13 Ether) is 7.5%; in the data set with rat TTR gene (Table 6, 0.03 mpk, PEG lipid C14 Ether), 4.2%; in the data set on rat TTR gene (Table 6, 0.03 mpk, PEG lipid PEG2K-DMG), 9.6%. Further, the “Mean % editing in rat liver” value with rat TTR gene came to 9.9%.
Regarding `CCCCC/C=C\C/C=C\CCCCCCCC(=O)OCC(COC(=O)CCC(OCCCCCCCC)OCCCCCCCC)COC(=O)NCCN(CC)CC` (stereo not shown) [Compound 54], in data set [1] (setting [7]), the pKa was found to be 6.5. In the data set with rat TTR gene (setting [8]), this compound yielded a Mean % editing of 36.9%.
Regarding `CCCCCCCCCOC(=O)CCCCCCCN(CCO)CCCCCCCC(=O)OC(CCCCCCCC)CCCCCCCC` [Compound 55], the pKa in data set [1] (setting [7]) is 6.6. This compound had a Mean % editing with rat TTR gene (setting [5]) of 13.2%.
In the case of `CCCCC/C=C\C/C=C\CCCCCCCC(=O)OCC(COC(=O)CCCC(=O)OC(CCCCCCCC)CCCCCCCC)COC(=O)OCCCN(CC)CC` (stereo not shown) [Compound 56], the pKa in data set [1] (setting [7]) stood at 6.1. For the same compound, the Mean % editing was 50.9% in the data set with rat TTR gene (setting [9]) and 53.0% with rat TTR gene (setting [4]).

As a reminder, the pKa is the negative logarithm of the acid dissociation constant.

The values above are taken from patent US20260337153A1, “IONIZABLE AMINE LIPIDS” (Intellia Therapeutics, Inc., priority 2023, published 2026).
